Assay results: EP1973398B1, “USE OF INOSITOL-TRIPYROPHOSPHATE IN TREATING TUMORS MEDIATED BY ANGIOGENESIS” (NormOxys, Inc., priority 2006, dated 2007)

Assays:
hemoglobin [1] = biological target: T1, hemoglobin (Homo sapiens, UniProt P68871); conditions: relative to DPG; cited from earlier work
hemoglobin [2] = biological target: T1, hemoglobin; conditions: pH 7.4, 37 degrees C.; cited from earlier work
murine hemoglobin = murine hemoglobin (Mus musculus, UniProt P01942+P02088); experiment: In vitro P50 shift, mixtures of hemoglobin and ITPP, HEMOX analyzer; type: biochemical; conditions: with murine hemoglobin
Protocol: ITPP was tested for its ability to induce a decrease of the O2-affinity of hemoglobin measured as a shift of the P50 value (P50 at 50% saturation of hemoglobin). With murine hemoglobin and whole blood, P50 shifts to higher PO2 of up to 250% with hemoglobin and up to 40% with whole blood were observed.
For the in vitro experiments ITPP was dissolved in deionized water, pH was adjusted at pH 7 and, for incubation with whole blood, the osmolality of the ITPP solutions was adjusted with glucose to 270-297 mOsM. Mixtures of hemoglobin and ITPP were measured with a HEMOX analyzer (PD Marketing, London) immediately. Red blood cells were incubated with ITPP for 1 hour at 37[deg.]C. Following incubation, the cells were washed 3 times with Bis-Tris-buffer (PH=7.0) and then used for P50 measurement.

whole blood = experiment: In vitro P50 shift, whole blood / red blood cells incubated with ITPP; type: cell-based, murine
[3] = tested on: murine circulating red blood cells; experiment: Right shift of the O2-hemoglobin dissociation curve in mice, ITPP orally in drinking water; type: in vivo, C57BL/6 mice
Protocol: ITPP was dissolved in drinking water at a 20g/L-concentration (= 27mM, pH ~7.0.) and offered for drinking ad libitum.
Twelve (12) C57BL/6 mice were fed the ITPP-solution (20g/L-concentration = 27mM, pH -7.0) for 4 days (up to 25 ml per 24 hrs). Three (3) control mice drank pure water, and four (4) control mice a solution of myoinositol hexaphosphate (IHP) (same concentration and pH as ITPP). Blood was collected from all mice on day 0 (before treatment started), and on days 1, 2, 4, 6, 7, 8, 10, 11 and 12 (after treatment had started), in order to measure P50 values.

[4] = Tolerability, serum ions and blood counts in mice after oral ITPP; type: in vivo, C57BL/6 mice
Protocol: Three (3) control mice drank pure water, and four (4) control mice a solution of myoinositol hexaphosphate (IHP) (same concentration and pH as ITPP).
Figure 3 contains the mean values and SD for the serum concentration of sodium, potassium and calcium obtained on day 0, 7 and 11 after start drinking ITPP (4 mice), IHP (3 mice) or water (3 mice).
Blood counts were measured from all mice, on day 0, 7 and 11.

[5] = tested on: circulating red blood cells; experiment: Right shift of the ODC in mice, ITPP injected intraperitoneally; type: in vivo; conditions: intraperitoneal, pH 7, 200µl, 45-150 mM (0.17-0.88 g/kg body weight)
Protocol: (§1) When ITPP (pH 7, 200µl) was injected intraperitoneally in mice, the P50 values of circulating red blood cells were shifted up to 23%. […] The level of ions, such as sodium, potassium and calcium were normal after ip injection. Six (6) mice were each injected intraperitoneally with 45-150 mM (= 0.17-0.88 g/kg body weight) of ITPP.

[6] = Tolerability and serum ions in mice after intraperitoneal ITPP; type: in vivo
Protocol: as §1

[7] = Right shift of P50 in piglets, ITPP injected intravenously; type: in vivo
Protocol: ITPP was also injected intravenously (IV) in piglets.
(§2) Based upon this observation, a CaCl2 (equimolar to ITPP) solution was injected with the ITPP solution, so that the dissociated phosphate groups of ITPP were saturated. None of the side effects observed previously occurred. […] The level of the other ions sodium and potassium was unchanged after IV injection of ITPP in piglets.

[8] = Serum ion levels in piglets after intravenous ITPP; type: in vivo; conditions: for Ca^2+ conc.: piglet's circulation blood
Protocol: In order to check possible side effects of ITPP the level of calcium in the serum of the injected piglet was determined. A strong drop in the Ca^2+ concentration in the animal's blood immediately after infusion indicated the possibility that ITPP, with 3 dissociated phosphate groups binds Ca^2+, reducing thus its availability as free ion in the blood. One day after infusion the concentration of Ca^2+ in the piglets' blood was restored to the normal value. Table 1: Ca2+ concentration in the piglet's circulation blood
as §2

VEGF mRNA = VEGF mRNA by RT-PCR in Lewis Lung carcinoma tumors of mice drinking ITPP; type: in vivo, C57BL/6 mice; conditions: LLC tumors, mice having received ITPP 20g/L orally, day 9, versus controls; quantification of gel assays
Protocol: ITPP, when administered orally, intravenously, or intraperitoneally, inhibits angiogenesis in growing tumors by enhancing PO2 in the forming tumors. […] All animals received then 1x10^6 Lewis Lung carcinoma (LLC) cells, injected in the dorsal cavity. At different time points, the VEGF mRNA were assayed by RT-PCR in the tumors growing in both groups of mice.
There was a difference in the level of mRNA of the VEGF gene in both groups. […] The RT-PCR agarose gel assay of VEGF mRNAs from tumor tissue taken from 2 mice each on day 15 after inoculation of LLC cells (track 1: controls, track 2: ITPP treated animals) and day 30 after inoculation (track 3: control animals, track 4: ITPP treated animals).
Quantification of the gel assays indicated a reduction by a factor of 10,000 of the amount of VEGF mRNAs detected in the tumors of animals having received ITPP, at day 9 and then, while differences remain between treated and untreated animals, they tend to decrease.

T1 sequence (P69905 2-142 partner limits assumed): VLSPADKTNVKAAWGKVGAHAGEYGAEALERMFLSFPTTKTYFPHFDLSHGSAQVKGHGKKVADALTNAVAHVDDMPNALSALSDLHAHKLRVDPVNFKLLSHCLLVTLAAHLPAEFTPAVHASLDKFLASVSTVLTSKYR
T1 sequence (P68871 2-147 limits assumed): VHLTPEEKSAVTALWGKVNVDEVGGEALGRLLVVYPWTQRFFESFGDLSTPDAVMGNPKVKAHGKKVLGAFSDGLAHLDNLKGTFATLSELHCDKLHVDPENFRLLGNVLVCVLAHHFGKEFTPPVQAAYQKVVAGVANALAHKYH
Sequence of murine hemoglobin (P01942 2-142 limits assumed): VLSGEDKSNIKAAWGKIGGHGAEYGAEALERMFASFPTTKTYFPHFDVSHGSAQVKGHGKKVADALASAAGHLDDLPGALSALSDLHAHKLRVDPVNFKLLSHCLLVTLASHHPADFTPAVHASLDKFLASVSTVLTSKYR
Sequence of murine hemoglobin (P02088 2-147 limits assumed): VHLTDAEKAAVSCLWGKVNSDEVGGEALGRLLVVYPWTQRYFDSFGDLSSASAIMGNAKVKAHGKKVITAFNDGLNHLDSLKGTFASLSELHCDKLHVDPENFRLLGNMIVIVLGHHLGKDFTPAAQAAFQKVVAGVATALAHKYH

O=P(O)(O)O[C@H]1[C@H](OP(=O)(O)O)[C@@H](OP(=O)(O)O)[C@H](OP(=O)(O)O)[C@@H](OP(=O)(O)O)[C@H]1OP(=O)(O)O [IHP, inositol hexaphosphate]
higher affinity to hemoglobin than DPG (hemoglobin [1]): 1000 fold | P50 of hemoglobin (hemoglobin [2]): ≤ 96.4 mm, Hg

O=P1(O)OC2C3OP(=O)(O)OP(=O)(O)OC3C3OP(=O)(O)OP(=O)(O)OC3C2OP(=O)(O)O1 (stereo not drawn) [ITPP, inositol-tripyrophosphate]
P50 shifts to higher PO2 (murine hemoglobin): up to 250% | lysis of the red blood cells (whole blood; in vitro): never occurred | P50 shifts to higher PO2 (whole blood; with murine whole blood): up to 40% | P50 values after 12 days ([3]; ingestion stopped on day 4): back to control values | right shifts of P50 ([3]; mice, oral application, 27 mM): up to 31% | time lag before the maximum shift is attained ([3]; mice, oral, 27 mM): approximately 48 hrs | basal value of the red blood cell count ([4]; 12 days after ingestion of ITPP, once ΔP50 becomes 0%): restored | toxicity ([4]; administered orally): little or no toxicity | number of white blood cells ([4]; blood from mice in different groups, day 0, 7 and 11): no significant differences | number of red blood cells ([4]; mice having ingested ITPP, blood counts day 0, 7 and 11): reduced | acceptance / harm to the animals ([4]; mice, ITPP-solution 20g/L (27mM) in drinking water for 4 days): neither rejected by the mice, nor harmful to the animals | level of ions, such as sodium and potassium and calcium ([4]; mice, after oral application, serum, day 0, 7 and 11): normal | P50 values of circulating red blood cells shifted [5]: up to 23% | concentration well tolerated by mice ([6]; intraperitoneal injection): ≤ 150000 µM | level of ions, such as sodium, potassium and calcium ([6]; mice, after ip injection): normal | P50 shift ([7]; IV, CaCl2 solution (equimolar to ITPP) injected with the ITPP solution): approximately 20 % of the basal value | shift of P50 ([7]; intravenous): right shift of P50 was observed | Ca^2+ conc. ([8]; 10 min after completion of injection (before injection 2.38)): 1.73 mmol/L | Ca^2+ conc. ([8]; 24 hrs after injection (before injection 2.38)): 2.36 mmol/L | level of calcium ([8]; piglets, IV, CaCl2 (equimolar to ITPP) injected with ITPP): remained constant | level of the other ions sodium and potassium ([8]; piglets, after IV injection of ITPP): unchanged | reduction of the amount of VEGF mRNAs detected in the tumors (VEGF mRNA): 10,000 factor
